# Results as given in patent publication US20120128667A1 (ONCOZYME PHARMA INC., priority 2009, published 2012).
# “And” between values parts separate entries of the source, which are not always exact repeats. Equal entries are not always repeated. “Also recorded” adds a separate entry of the source. Where two headings read alike, the source gives them in different places.
# Tests used:
# [1] = tested on: H661 (lung cancer (carcinoma)); experiment: cells; conditions: for Percentage of cells killed: H661; for CC50: Homo sapiens
# Method: (§1) Cell Survival-MTT assay: The MTT (3-[4,5-Dimethylthiazol-2-yl]-2,5 diphenyl tertrazolim bromide) method of determining cell growth/cytotoxicity was used to determine cell survival. MTT is a tetrazolium salt that binds to b mitochondrial dehydrogenases of living cells. Binding converts yellow, water soluble MTT to an insoluble, purple formazan crystal. The crystals are solubilized with a 50% N,N-dimethylformamide (vol/vol), 20% SDS (wt/vol) solution (pH 4.7), and absorbance is determined at a wavelength of 570 nm. Unbound MTT is not detectable at this wavelength. The amount of bound MTT measured in the assay is proportional to the number of live cells present. (Niks and Otto 1990: “Towards an optimized MTT assay,” J. Immunol. Methods. 130, 149-151, Hussain et al. 1993; “A new approach for measurement of cytotoxicity using colorimetric assay,” J. Immunol. Methods. 160, 89-96).
# (§2) Cells were harvested from cell cultures using the standard protocol (Trypsin/EDTA). The cells (1000 to 5000 cells in 50 μl of solution depending on cell type used) were then plated and incubated overnight at 37° C. before the addition of the agent or combination of agents.) After 2 days of incubation at 37° C., 10 μl of a 5 mg/ml solution of MTT was then added to all the wells and to a media control well. The plates were further incubated for 4 hours. A 100 μl of MTT solubilization buffer was added and the plates were incubated overnight at 37° C. The plates were then read on the ELISA plate reader with absorbance at 570 nm and a reference at 630 nm.
# (§3) The effects of combinations were tested on three representative cancer cell lines: H661 (lung cancer (carcinoma)), MCF-7 (breast cancer (adenocarcinoma, pleural effusion)), and HT29 (colon cancer (adenocarcinoma, primary tumor)). Initial assays were carried out to determine the concentrations at which taxol, oxaliplatin, gemcitabine, or CPT 11 (also known as irinotecan) killed approximately 10% of the cells under investigation.
# [2] = tested on: HT29 (colon cancer (adenocarcinoma, primary tumor)); experiment: cells; conditions: for Percentage of cells killed: HT29; for CC50: Homo sapiens
# Method: as §1, §2, §3
# [3] = tested on: MCF-7 (breast cancer (adenocarcinoma, pleural effusion)); experiment: cells; conditions: for Percentage of cells killed: MCF7; for CC50: Homo sapiens
# Method: as §1, §2, §3
# [4] = injected slowly into patients; cited from earlier work
# [5] = tested on: metastatic colorectal cancer (mCRC); experiment: Phase I/II trial of pentamidine with chemotherapy in previously treated mCRC (Example 5); assay type: in vivo, human
# [6] = tested on: BxPC3 human pancreas xenograft; conditions: IP bi-weekly; Pentamidine 45 mg/kg, Gemcitabine 150 mg/kg
# Method: BxPC3 cells were transplanted subcutaneously into the flank of each animal as a suspension of tumor cells (5×10^6 cells in 0.1 mL in PBS) on Jan. […] Transplantation was performed under a laminar airflow hood. […] Animals were labeled using the “ear punching” method so that for each group, all 10 animals could be distinguished. Each group of 10 mice was housed in 2 separate cages of 5 mice each; animal numbers 1 to 5 were housed in Cage A and animal numbers 6 to 10 were housed in Cage B.
# Prior to every dosing injection, each animal was weighed and received their respective formulations. […] Mice in group 3 were treated intraperitoneally, bi-weekly (Tuesday-Friday) at 150 mg/kg with Gemcitabine for eleven weeks. […] The dose volume was 30 mL/kg for mice treated intraperitoneally.
# At termination, when the tumor volume of one of the mice in the group reached 1500 mm^3, the whole group was sacrificed, and animals were anaesthetized using isoflurane and sacrificed by cervical dislocation.
# [7] = repeated dosing; cited from earlier work
# metastatic colon cancer = experiment: Phase I/IIa clinical trial colon cancer (Example 3); assay type: in vivo, human; conditions: interim results; I.V. pentamidine Day -2 and Day -1 before chemotherapy cycle
# Text: (FOLFOX regimens contain oxaliplatin, FOLFIRI regimens contain CPT 11 also known as Irinotecan; and IROX regimens contain Irinotecan and Oxaliplatin). Patients may also receive bevacizumab (Avastin) as part of chemotherapy or cetuximab (Erbitux) or panitumumab (Vectibix). Twenty-two patients are enrolled to date.
# A further dose is being given on Day −1.
# Both dose escalation and treatment with pentamidine alone are at the discretion of the treating physician.
# Almost all patients will have previously failed on their current treatment or a combination thereof.
# [8] = 13 evaluable pts, first 2 cycles
# [9] = 13 evaluable pts, pentamidine before CTX
# [10] = per patient, NCI CTCAEv3, pentamidine + CTX
# [11] = preliminary analysis, pentamidine + CTX
structure (smiles),measurement,setting,value
"O=C1[O][Pt]2([NH][C@@H]3CCCC[C@H]3[NH]2)[O]C1=O [Oxaliplatin, oxaliplatin]",Percentage of cells killed,[1]; Oxaliplatin 0.25 μM alone,14%
same,Percentage of cells killed,[2]; Oxaliplatin 0.25 μM alone,10%
same,Percentage of cells killed,[3]; Oxaliplatin 0.25 μM alone,8%
N.N.[Cl][Pt][Cl] [Cis-platinum],urinary excretion,[4],≤ 75%
"CCc1c2c(nc3ccc(OC(=O)N4CCC(N5CCCCC5)CC4)cc13)-c1cc3c(c(=O)n1C2)COC(=O)[C@]3(O)CC [CPT-11, camptothecin-11]",Percentage of cells killed,[1]; CPT-11 3.2 μM alone,14%
same,Percentage of cells killed,[2]; CPT-11 3.2 μM alone,6%
same,Percentage of cells killed,[3]; CPT-11 3.2 μM alone,30%
"Nc1ccn([C@@H]2O[C@H](CO)[C@@H](O)C2(F)F)c(=O)n1 [Gemcitabine, gemcitabine]",Percentage of cells killed,[1]; Gemcitabine 0.26 μM alone,25%
same,Percentage of cells killed,[2]; Gemcitabine 0.26 μM alone,23%
same,Percentage of cells killed,[3]; Gemcitabine 0.26 μM alone,23%
N=C(N)c1ccc(OCCCCCOc2ccc(C(=N)N)cc2)cc1 [Pentamidine],"DLT anorexia, share of pts",[5]; [8],8%
same,"DLT hyperglycaemia, share of pts",[5]; [8],8%
same,Grade 3/4 AEs attributed to pentamidine: hyperglycaemia,[5]; [9],23%
same,Grade 3/4 AEs attributed to pentamidine: hyperlipasemia,[5]; [9],15%
same,activity in mCRC that has progressed on standard lines of treatment (in words),[5]; Pentamidine & CTX,disease stabilizing activity
same,Reason for exiting the trial: Fatigue,[5]; initial 17 pts,12%
same,"Reason for exiting the trial: Fatigue, number of pts",[5]; initial 17 pts,2
same,Reason for exiting the trial: PD,[5]; initial 17 pts,35%
same,"Reason for exiting the trial: PD, number of pts",[5]; initial 17 pts,6
same,Reason for exiting the trial: Toxicity attributed to pentamidine,[5]; initial 17 pts,18%
same,"Reason for exiting the trial: Toxicity attributed to pentamidine, number of pts",[5]; initial 17 pts,3
same,Response at patient exit from trial: CR,[5]; initial 17 pts,0%
same,"Response at patient exit from trial: CR, number of pts",[5]; initial 17 pts,0
same,Response at patient exit from trial: PD,[5]; initial 17 pts,47%
same,"Response at patient exit from trial: PD, number of pts",[5]; initial 17 pts,8
same,Response at patient exit from trial: PR,[5]; initial 17 pts,0%
same,"Response at patient exit from trial: PR, number of pts",[5]; initial 17 pts,0
same,Response at patient exit from trial: SD,[5]; initial 17 pts,35%
same,"Response at patient exit from trial: SD, number of pts",[5]; initial 17 pts,6
same,Best response during treatment: CR,"[5]; initial 17 pts, RECIST",0%
same,"Best response during treatment: CR, number of pts","[5]; initial 17 pts, RECIST",0
same,Best response during treatment: PD,"[5]; initial 17 pts, RECIST",24%
same,"Best response during treatment: PD, number of pts","[5]; initial 17 pts, RECIST",4
same,Best response during treatment: PR,"[5]; initial 17 pts, RECIST",6%
same,"Best response during treatment: PR, number of pts","[5]; initial 17 pts, RECIST",1
same,Best response during treatment: SD,"[5]; initial 17 pts, RECIST",59%
same,"Best response during treatment: SD, number of pts","[5]; initial 17 pts, RECIST",10
same,Attribution to Pentamidine: Anorexia,[5]; per patient,possibly
same,Attribution to Pentamidine: Diarrhea,[5]; per patient,No (2×) and possibly
same,Attribution to Pentamidine: Elevated Lipase,[5]; per patient,posssibly; also recorded: definitely
same,Attribution to Pentamidine: Fainting/syncope,[5]; per patient,No
same,Attribution to Pentamidine: General deterioration,[5]; per patient,No
same,Attribution to Pentamidine: Hand-foot reaction,[5]; per patient,No
same,Attribution to Pentamidine: Neutropenia,[5]; per patient,possibly
same,Attribution to Pentamidine: Urinary tract infection,[5]; per patient,No
same,AE Grade: Anorexia,[5]; [10],3
same,AE Grade: Diarrhea,[5]; [10],3
same,AE Grade: Elevated Lipase,[5]; [10],3
same,AE Grade: Fainting/syncope,[5]; [10],3
same,AE Grade: General deterioration,[5]; [10],4
same,AE Grade: Hand-foot reaction,[5]; [10],3
same,AE Grade: Neutropenia,[5]; [10],3
same,AE Grade: Urinary tract infection,[5]; [10],3
same,toxicity of pentamidine with CTX (in words),[5]; preliminary analysis,consistent with known side effects of pentamidine; also recorded: manageable
same,Median OS time,[5]; [11],has not yet been reached
same,median PFS time,[5]; [11],4.4 months
same,"effect in the treatment of pancreatic cancer (tumor growth, FIG. 3)",[6],beneficial effect
same,time after final dose at which pentamidine was detected in tissue,[7],25 days
same,overall survival compared with best current therapy,metastatic colon cancer,significantly enhances overall survival
same,Percentage of cells killed,[1]; Pentamidine 0.15 mM alone,50%
same,CC50,"[1]; NCI-H661, 48 h, read-out: LC50 of Pentamidine",150 µM
same,CC50,"[1]; NCI-H661, read-out: LC50 of Pentamidine With CPT11 (0.25 μM)",3 µM
same,CC50,"[1]; NCI-H661, read-out: LC50 of Pentamidine With Gemcitabine (0.26 μM)",27 µM
same,CC50,"[1]; NCI-H661, read-out: LC50 of Pentamidine With Oxaliplatin (0.25 μM)",3 µM
same,CC50,"[1]; NCI-H661, read-out: LC50 of Pentamidine with Taxol (2 μM)",7 µM
same,Percentage of cells killed,[2]; Pentamidine 0.15 mM alone,13%
same,CC50,"[2]; HT-29, 48 h, read-out: LC50 of Pentamidine",270 µM
same,CC50,"[2]; HT-29, read-out: LC50 of Pentamidine With CPT11 (0.25 μM)",12 µM
same,CC50,"[2]; HT-29, read-out: LC50 of Pentamidine With Gemcitabine (0.26 μM)",30 µM
same,CC50,"[2]; HT-29, read-out: LC50 of Pentamidine With Oxaliplatin (0.25 μM)",9 µM
same,CC50,"[2]; HT-29, read-out: LC50 of Pentamidine with Taxol (2 μM)",130 µM
same,CC50,"[3]; MCF7, 48 h, read-out: LC50 of Pentamidine",150 µM
same,CC50,"[3]; MCF7, read-out: LC50 of Pentamidine With CPT11 (0.25 μM)",26 µM
same,CC50,"[3]; MCF7, read-out: LC50 of Pentamidine With Gemcitabine (0.26 μM)",66 µM
same,CC50,"[3]; MCF7, read-out: LC50 of Pentamidine With Oxaliplatin (0.25 μM)",9 µM
same,CC50,"[3]; MCF7, read-out: LC50 of Pentamidine with Taxol (2 μM)",60 µM
same,Percentage of cells killed,[3]; Pentamidine 0.15 mM alone,50%
